# How the values were obtained:
# [1] = test system: Rattus norvegicus; assay: Antihypertensive activity in Wistar rat assessed as mean arterial pressure at 40 mg/kg, ip after 30 mins (reference value: 194.72 +/- 1.002 mmHg); assay type: functional, Artery; details: route intraperitoneal
# [2] = test system: Rattus norvegicus; assay: Toxicity in anaesthetized-Wistar rat assessed as Q-T ECG interval at 40 mg/kg, ip after 60 mins (reference value: 79.7 +/- 0.965 ms); assay type: organism-based; set-up: dose 40 mg/kg, route intraperitoneal; details: in vivo, 1 h
# [3] = test system: Rattus norvegicus; assay: Toxicity in anaesthetized-Wistar rat assessed as P-Q ECG interval at 40 mg/kg, ip measured immediately at 0 min (reference value: 52.4 +/- 0.927 ms); assay type: organism-based; set-up: dose 40 mg/kg, route intraperitoneal; details: in vivo, 0 h
# [4] = test system: Rattus norvegicus; assay: Toxicity in anaesthetized-Wistar rat assessed as Q-T ECG interval at 40 mg/kg, ip after 45 mins (reference value: 78.8 +/- 0.927 ms); assay type: organism-based; set-up: dose 40 mg/kg, route intraperitoneal; details: in vivo, 0.75 h
# [5] = test system: Rattus norvegicus; assay: Antihypertensive activity in Wistar rat assessed as mean arterial pressure at 40 mg/kg, ip after 45 mins (reference value: 193.96 +/- 0.865 mmHg); assay type: functional, Artery; details: route intraperitoneal
# [6] = test system: Rattus norvegicus; assay: Antihypertensive activity in Wistar rat assessed as mean arterial pressure at 40 mg/kg, ip after 60 mins (reference value: 195.11 +/- 0.531 mmHg); assay type: functional, Artery; details: route intraperitoneal
# [7] = test system: Rattus norvegicus; assay: Toxicity in anaesthetized-Wistar rat assessed as Q-T ECG interval at 40 mg/kg, ip after 30 mins (reference value: 78.3 +/- 0.860 ms); assay type: organism-based; set-up: dose 40 mg/kg, route intraperitoneal; details: in vivo, 0.5 h
# [8] = test system: Rattus norvegicus; assay: Toxicity in anaesthetized-Wistar rat assessed as P-Q ECG interval at 40 mg/kg, ip after 60 mins (reference value: […] +/- 0.924 ms); assay type: organism-based; set-up: dose 40 mg/kg, route intraperitoneal; details: in vivo, 1 h
# [9] = test system: Rattus norvegicus; assay: Toxicity in anaesthetized-Wistar rat assessed as QRS ECG interval at 40 mg/kg, ip measured immediately at 0 min (reference value: 19.6 +/- 1.142 ms); assay type: organism-based; set-up: dose 40 mg/kg, route intraperitoneal; details: in vivo, 0 h
# [10] = test system: Rattus norvegicus; assay: Toxicity in anaesthetized-Wistar rat assessed as QRS ECG interval at 40 mg/kg, ip after 45 mins (reference value: 20.2 +/- 1.348 ms); assay type: organism-based; set-up: dose 40 mg/kg, route intraperitoneal; details: in vivo, 0.75 h
# [11] = test system: Rattus norvegicus; assay: Toxicity in anaesthetized-Wistar rat assessed as QRS ECG interval at 40 mg/kg, ip after 30 mins (reference value: 19.9 +/- 1.393 ms); assay type: organism-based; set-up: dose 40 mg/kg, route intraperitoneal; details: in vivo, 0.5 h
# [12] = test system: Rattus norvegicus; assay: Toxicity in anesthetized-normotensive Wistar rat assessed as heart rate at 40 mg/kg, ip after 45 mins (reference value: 316.82 +/- 8.452 bpm); assay type: organism-based; set-up: dose 40 mg/kg, route intraperitoneal; details: in vivo, 0.75 h
# [13] = test system: Rattus norvegicus; assay: Antiarrhythmic activity in barium chloride-induced Wistar rat assessed as increase in appearance time of arrhythmia at 40 mg/kg, ip administered 60 mins before barium chloride challenge (reference value: 129.4 +/- 4.373 sec); assay type: functional, Heart; details: route intraperitoneal
# [14] = test system: Rattus norvegicus; assay: Antihypertensive activity in Wistar rat assessed as mean arterial pressure at 40 mg/kg, ip after 15 mins (reference value: 195.68 +/- 1.623 mmHg); assay type: functional, Artery; details: route intraperitoneal
# [15] = test system: Rattus norvegicus; assay: Toxicity in anaesthetized-Wistar rat assessed as Q-T ECG interval at 40 mg/kg, ip measured immediately at 0 min (reference value: 78.8 +/- 1.030 ms); assay type: organism-based; set-up: dose 40 mg/kg, route intraperitoneal; details: in vivo, 0 h
# [16] = test system: Rattus norvegicus; assay: Antihypertensive activity in Wistar rat assessed as mean arterial pressure at 40 mg/kg, ip measured immediately at 0 min (reference value: 194.08 +/- 1.962 mmHg); assay type: functional, Artery; details: route intraperitoneal
# [17] = test system: Rattus norvegicus; assay: Toxicity in […] normotensive Wistar rat assessed as mean arterial pressure at 40 mg/kg, ip measured immediately at 0 min (reference value: 94.21 +/- 2.065 mmHg); assay type: organism-based, Artery; set-up: dose 40 mg/kg, route intraperitoneal; details: in vivo, 0 h
# [18] = test system: Rattus norvegicus; assay: Toxicity in anaesthetized-Wistar rat assessed as Q-T ECG interval at 40 mg/kg, ip after 15 mins (reference value: 79.4 +/- 1.270 ms); assay type: organism-based; set-up: dose 40 mg/kg, route intraperitoneal; details: in vivo, 0.25 h
# [19] = test system: Rattus norvegicus; assay: Toxicity in anesthetized-normotensive Wistar rat assessed as heart rate at 40 mg/kg, ip measured immediately at 0 min (reference value: 316.62 +/- 9.643 bpm); assay type: organism-based; set-up: dose 40 mg/kg, route intraperitoneal; details: in vivo, 0 h
# [20] = test system: Rattus norvegicus; assay: Toxicity in […] normotensive Wistar rat assessed as mean arterial pressure at 40 mg/kg, ip after 30 mins (reference value: 94.68 +/- 1.213 mmHg); assay type: organism-based, Artery; set-up: dose 40 mg/kg, route intraperitoneal; details: in vivo, 0.5 h
# [21] = test system: Rattus norvegicus; assay: Toxicity in […] normotensive Wistar rat assessed as mean arterial pressure at 40 mg/kg, ip after 45 mins (reference value: 94.83 +/- 0.943 mmHg); assay type: organism-based, Artery; set-up: dose 40 mg/kg, route intraperitoneal; details: in vivo, 0.75 h
# [22] = test system: Rattus norvegicus; assay: Toxicity in anesthetized-normotensive Wistar rat assessed as heart rate at 40 mg/kg, ip after 15 mins (reference value: 313.93 +/- 9.912 bpm); assay type: organism-based; set-up: dose 40 mg/kg, route intraperitoneal; details: in vivo, 0.25 h
# [23] = test system: Rattus norvegicus; assay: Toxicity in anaesthetized-Wistar rat assessed as P-Q ECG interval at 40 mg/kg, ip after 30 mins (reference value: […] +/- 0.927 ms); assay type: organism-based; set-up: dose 40 mg/kg, route intraperitoneal; details: in vivo, 0.5 h
# [24] = test system: Rattus norvegicus; assay: Toxicity in anesthetized-normotensive Wistar rat assessed as heart rate at 40 mg/kg, ip after 30 mins (reference value: 317.68 +/- 7.631 bpm); assay type: organism-based; set-up: dose 40 mg/kg, route intraperitoneal; details: in vivo, 0.5 h
# [25] = test system: Rattus norvegicus; assay: Toxicity in anaesthetized-Wistar rat assessed as QRS ECG interval at 40 mg/kg, ip after 15 mins (reference value: 18.9 +/- 1.563 ms); assay type: organism-based; set-up: dose 40 mg/kg, route intraperitoneal; details: in vivo, 0.25 h
# [26] = test system: Rattus norvegicus; assay: Antiarrhythmic activity in barium chloride-induced Wistar rat assessed as increase in mortality time at 40 mg/kg, ip administered 60 mins before barium chloride challenge (reference value: 682.8 +/- 9.656 secs); assay type: functional, Heart; details: route intraperitoneal
# [27] = test system: Rattus norvegicus; assay: Toxicity in anaesthetized-Wistar rat assessed as P-Q ECG interval at 40 mg/kg, ip after 45 mins (reference value: 52.5 +/- 0.780 ms); assay type: organism-based; set-up: dose 40 mg/kg, route intraperitoneal; details: in vivo, 0.75 h
# [28] = test system: Rattus norvegicus; assay: Toxicity in […] normotensive Wistar rat assessed as mean arterial pressure at 40 mg/kg, ip after 60 mins (reference value: 95.07 +/- 1.973 mmHg); assay type: organism-based, Artery; set-up: dose 40 mg/kg, route intraperitoneal; details: in vivo, 1 h
# [29] = test system: Rattus norvegicus; assay: Toxicity in anaesthetized-Wistar rat assessed as QRS ECG interval at 40 mg/kg, ip after 60 mins (reference value: 19.3 +/- 0.873 ms); assay type: organism-based; set-up: dose 40 mg/kg, route intraperitoneal; details: in vivo, 1 h
# [30] = test system: Rattus norvegicus; assay: Toxicity in […] normotensive Wistar rat assessed as mean arterial pressure at 40 mg/kg, ip after 15 mins (reference value: 93.81 +/- 1.543 mmHg); assay type: organism-based, Artery; set-up: dose 40 mg/kg, route intraperitoneal; details: in vivo, 0.25 h
# [31] = test system: Rattus norvegicus; assay: Toxicity in anesthetized-normotensive Wistar rat assessed as heart rate at 40 mg/kg, ip after 60 mins (reference value: 314.96 +/- 9.442 bpm); assay type: organism-based; set-up: dose 40 mg/kg, route intraperitoneal; details: in vivo, 1 h
# [32] = test system: Rattus norvegicus; assay: Toxicity in anaesthetized-Wistar rat assessed as P-Q ECG interval at 40 mg/kg, ip after 15 mins (reference value: 52.2 +/- 1.158 ms); assay type: organism-based; set-up: dose 40 mg/kg, route intraperitoneal; details: in vivo, 0.25 h
SMILES,Activity [1],Activity [2],Activity [3],Activity [4],Activity [5],Activity [6],Activity [7],Activity [8],Activity [9],Activity [10],Activity [11],Activity [12],Time [13],Activity [14],Activity [15],Activity [16],Activity [17],Activity [18],Activity [19],Activity [20],further results
CCCN(CCC)CC(O)CN1C(=O)/C(=C\c2ccccc2)S/C1=N\c1ccccc1 (stereo not drawn),170.1 mmHg,72.7 ms,49.4 ms,74.9 min,153.26 mmHg,172.23 mmHg,73.4 min,50.2 min,22.8 min,24.1 min,23.8 ms,305.32 bpm,266.1 s,184.76 mmHg,72.5 min,193.57 mmHg,95.41 mmHg,72.9 min,329.62 bpm,79.16 mmHg,Activity [21]: 72.37 mmHg; Activity [22]: 319.34 bpm; Activity [23]: 51.3 min; Activity [24]: 289.52 bpm; Activity [25]: 23.2 min; Time [26]: 938.4 s; Activity [27]: 52.4 min; Activity [28]: 88.98 mmHg; Activity [29]: 22.5 min; Activity [30]: 91.1 mmHg; Activity [31]: 312.43 bpm; Activity [32]: 49.7 min
O=C1/C(=C\c2ccccc2)S/C(=N\c2ccccc2)N1CC(O)CN1CCNCC1 (stereo not drawn),153.16 mmHg,82.1 ms,54.3 ms,82.4 min,128.32 mmHg,159.08 mmHg,81.8 min,55.1 min,20.8 min,23.7 min,23.8 ms,269.73 bpm,379.7 s,176.65 mmHg,80.2 min,196.63 mmHg,92.33 mmHg,80.6 min,302.12 bpm,62.26 mmHg,Activity [21]: 62.53 mmHg; Activity [22]: 292.46 bpm; Activity [23]: 56.4 min; Activity [24]: 259.31 bpm; Activity [25]: 21.6 min; Time [26]: 1380.5 s; Activity [27]: 56.9 min; Activity [28]: 70.27 mmHg; Activity [29]: 22.4 min; Activity [30]: 78.76 mmHg; Activity [31]: 298.12 bpm; Activity [32]: 54.7 min
CC(C)N1CCN(CC(O)CN2C(=O)/C(=C\c3ccccc3)S/C2=N\c2ccccc2)CC1 (stereo not drawn),161.56 mmHg,77.4 ms,53.5 ms,77.1 min,146.51 mmHg,160.84 mmHg,76.6 min,55.6 min,23.3 min,24.6 min,24.1 ms,253.26 bpm,354.8 s,185.53 mmHg,76 min,193.37 mmHg,92.09 mmHg,76.2 min,310.34 bpm,62.08 mmHg,Activity [21]: 65.43 mmHg; Activity [22]: 298.46 bpm; Activity [23]: 54.1 min; Activity [24]: 272.41 bpm; Activity [25]: 23.7 min; Time [26]: 1213.7 s; Activity [27]: 55.2 min; Activity [28]: 76.27 mmHg; Activity [29]: 24.8 min; Activity [30]: 79.32 mmHg; Activity [31]: 302.92 bpm; Activity [32]: 53.9 min
O=C1/C(=C\c2ccccc2)S/C(=N\c2ccccc2)N1CC(O)CN1CCN(c2ccccc2)CC1 (stereo not drawn),146.27 mmHg,75 ms,52.4 ms,74.9 min,156.09 mmHg,182.32 mmHg,74.2 min,54.2 min,21.8 min,24.1 min,23.5 ms,287.25 bpm,285.4 s,180.43 mmHg,73.5 min,194.87 mmHg,94.56 mmHg,73.9 min,318.34 bpm,76.84 mmHg,Activity [21]: 79.26 mmHg; Activity [22]: 309.46 bpm; Activity [23]: 53.3 min; Activity [24]: 295.41 bpm; Activity [25]: 22.2 min; Time [26]: 964.4 s; Activity [27]: 53.9 min; Activity [28]: 83.55 mmHg; Activity [29]: 24.7 min; Activity [30]: 86.43 mmHg; Activity [31]: 301.92 bpm; Activity [32]: 52.7 min
